From US20250161307A1, “PYRAZOLOPYRIMIDINES AS MODULATORS OF SPERMINE OXIDASE” (Janssen Pharmaceutica NV, priority 2022, published 2025)
Counter-ions that a name gives are not always drawn.

Assays:
hPAOX = hPAOX (Homo sapiens (Human), UniProt Q6QHF9); assay: Human PAOX assay (HyPerBlu chemiluminescent detection of hydrogen peroxide); format: biochemical; conditions: 60 pM recombinant PAOX, 20 μM N-acetylspermine substrate
Protocol: (§1) The direct detection of hydrogen peroxide produced from the enzymatic reaction of hSMOX or hPAOX in a biochemical assay format was measured using HyPerBlu (Lumigen, Southfield, MI), a small molecule boronate probe that reacts with hydrogen peroxide to generate a chemiluminescent signal. Inhibition of hSMOX or hPAOX enzyme results in a decrease in luminescence.
The hPAOX assay was run and the data analyzed similarly to the hSMOX assay described above, except the reactions contained 60 pM recombinant PAOX with an N-terminal His tag expressed from sf9 insect cells and used 20 μM N-acetylspermine as the substrate.

SMOX = SMOX (Homo sapiens (Human), UniProt Q9NWM0); assay: Human SMOX assay (HyPerBlu chemiluminescent detection of hydrogen peroxide); format: biochemical; conditions: 2.5 nM full length hSMOX, spermine substrate, 1 h at room temperature, luminescence read; read-out: SMOx_IC50
Chain of SMOX (Q9NWM0 whole entry): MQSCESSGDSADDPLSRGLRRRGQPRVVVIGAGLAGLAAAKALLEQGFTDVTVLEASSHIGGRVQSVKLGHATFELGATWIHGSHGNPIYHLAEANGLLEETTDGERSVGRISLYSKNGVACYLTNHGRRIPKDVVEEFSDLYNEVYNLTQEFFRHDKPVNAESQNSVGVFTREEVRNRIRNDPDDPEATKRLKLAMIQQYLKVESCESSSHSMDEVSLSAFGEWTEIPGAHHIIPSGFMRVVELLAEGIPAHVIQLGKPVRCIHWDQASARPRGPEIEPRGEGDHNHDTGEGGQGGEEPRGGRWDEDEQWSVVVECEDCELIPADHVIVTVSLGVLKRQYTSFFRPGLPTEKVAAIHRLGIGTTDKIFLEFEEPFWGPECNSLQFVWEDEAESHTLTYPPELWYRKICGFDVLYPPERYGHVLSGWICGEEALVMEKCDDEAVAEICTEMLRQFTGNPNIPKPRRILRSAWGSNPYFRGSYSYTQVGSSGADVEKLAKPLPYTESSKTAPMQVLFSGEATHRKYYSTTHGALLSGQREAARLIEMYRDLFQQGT
Protocol: as §1
Test compounds (75 nL) dissolved in DMSO were added to a 384-well white assay plate (Greiner Bio-one, catalog #784075) using an ECHO Acoustic Dispenser (Labcyte). Each compound was serially diluted 3-fold in DMSO to prepare an 11-point dose response curve (columns 1-22). Column 23 and 24 contained 75 nL of 2 mM chlorhexidine and DMSO, respectively, to represent the 100% inhibited versus the neutral control reactions.
Subsequently, 3 μL/well of the substrate solution prepared in assay buffer (10 mM Hepes, pH 7.4, 150 mM NaCl, 1 mM EGTA, 0.01% Pluronic F-127, 0.05% ovalbumin) was dispensed into the assay plate followed by 3 μL/well of full length hSMOX enzyme with an N-terminal His tag from E. coli prepared in assay buffer to initiate the reactions. After a 1 h incubation at room temperature, 6 μL/well of HyPerBlu was added. After a 30 min incubation, the hydrogen peroxide product generated from the hSMOX reactions was measured using an endpoint luminescence read on the PHERAStar FS/FSX microplate reader (BMG LABTECH).
The final assay conditions included 10 mM Hepes, pH 7.4, 150 mM NaCl, 1 mM EGTA, 0.01% Pluronic F-127, 0.05% ovalbumin, 2.5 nM hSMOX, 30 µM spermine, and 1.25% DMSO.
Dose-response curves were fit and compound IC50 values were determined using Genedata Screener (Genedata AG).

Chain of hPAOX (Q6QHF9 whole entry): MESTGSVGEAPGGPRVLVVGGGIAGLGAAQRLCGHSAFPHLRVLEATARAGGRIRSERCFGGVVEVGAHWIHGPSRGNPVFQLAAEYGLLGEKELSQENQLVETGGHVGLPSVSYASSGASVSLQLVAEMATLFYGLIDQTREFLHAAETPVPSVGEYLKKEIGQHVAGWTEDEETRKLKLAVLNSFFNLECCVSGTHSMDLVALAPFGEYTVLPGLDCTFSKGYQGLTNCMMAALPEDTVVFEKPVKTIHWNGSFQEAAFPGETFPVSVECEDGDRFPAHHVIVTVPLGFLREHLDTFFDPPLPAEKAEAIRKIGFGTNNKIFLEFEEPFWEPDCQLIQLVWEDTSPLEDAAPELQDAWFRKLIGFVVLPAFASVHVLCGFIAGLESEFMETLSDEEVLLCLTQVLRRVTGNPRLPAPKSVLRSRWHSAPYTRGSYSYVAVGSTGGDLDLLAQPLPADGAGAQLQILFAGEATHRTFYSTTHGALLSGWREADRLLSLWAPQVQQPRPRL

| IC50 (hPAOX) [µM] | IC50 (SMOX) [nM] | Compound |
| --- | --- | --- |
| 7.13 | 1010 | CN1CC[C@@H](NC(=O)c2cc3nc(-c4ccccc4)cc(N4CCCCC4)n3n2)C1 (single isomer, unassigned) [Example 72, (*R)—N-(1-methylpyrrolidin-3-yl)-5-phenyl-7-(piperidin-1-yl)pyrazolo[1,5-a]pyrimidine-2-carboxamide trifluoroacetate] |
| 4.21 | 1030 | CN1CC[C@H](NC(=O)c2cc3nc(-c4ccccc4)cc(N4CCCCC4)n3n2)C1 (single isomer, unassigned) [Example 73, (*S)—N-(1-methylpyrrolidin-3-yl)-5-phenyl-7-(piperidin-1-yl)pyrazolo[1,5-a]pyrimidine-2-carboxamide trifluoroacetate] |
| 4.54 | 4360 | O=C(NC1CN(Cc2ccccc2)C1)c1cc2nc(-c3ccccc3)cc(-c3ccccc3)n2n1 [Example 3, N-(1-Benzylazetidin-3-yl)-5,7-diphenylpyrazolo[1,5-a]pyrimidine-2-carboxamide] |
| 8.72 | 599 | CC(C)N1CCC(NC(=O)c2cc3nc(-c4ccccc4)cc(-c4ccccc4)n3n2)C1 (stereo not drawn) [Example 4, N-(1-Isopropylpyrrolidin-3-yl)-5,7-diphenylpyrazolo[1,5-a]pyrimidine-2-carboxamide] |
| 0.914 | 367 | CCN1CCC(NC(=O)c2cc3nc(-c4ccccc4)cc(-c4ccccc4)n3n2)C1 (stereo not drawn) [Example 5, N-(1-Ethylpyrrolidin-3-yl)-5,7-diphenylpyrazolo[1,5-a]pyrimidine-2-carboxamide] |
| 4.95 | 230 | CN1CCC(NC(=O)c2cc3nc(-c4ccccc4)cc(-c4ccccc4)n3n2)C1 (stereo not drawn) [Example 6, N-(1-Methylpyrrolidin-3-yl)-5,7-diphenylpyrazolo[1,5-a]pyrimidine-2-carboxamide] |
| 1.33 | 712 | CN1CC[C@H](NC(=O)c2cc3nc(-c4ccccc4)cc(-c4ccccc4)n3n2)C1 [Example 7, (S)—N-(1-Methylpyrrolidin-3-yl)-5,7-diphenylpyrazolo[1,5-a]pyrimidine-2-carboxamide] |
| 10.7 | 393 | CN1CC[C@@H](NC(=O)c2cc3nc(-c4ccccc4)cc(-c4ccccc4)n3n2)C1 [Example 8, (R)—N-(1-Methylpyrrolidin-3-yl)-5,7-diphenylpyrazolo[1,5-a]pyrimidine-2-carboxamide] |
| 1.12 | 195 | O=C(NCCCc1ccncc1)c1cc2nc(-c3ccccc3)cc(-c3ccccc3)n2n1 [Example 9, 5,7-Diphenyl-N-(3-(pyridin-4-yl)propyl)pyrazolo[1,5-a]pyrimidine-2-carboxamide] |
| 1.38 | 617 | CN(C)CCNC(=O)c1cc2nc(-c3ccccc3)cc(-c3ccccc3)n2n1 [Example 10, N-(2-(Dimethylamino)ethyl)-5,7-diphenylpyrazolo[1,5-a]pyrimidine-2-carboxamide] |
| 10.3 | 567 | CN(CCCn1ccnc1)C(=O)c1cc2nc(-c3ccccc3)cc(-c3ccccc3)n2n1 [Example 11, N-(3-(1H-Imidazol-1-yl)propyl)-N-methyl-5,7-diphenylpyrazolo[1,5-a]pyrimidine-2-carboxamide] |
| 5.26 | 604 | O=C(NCCCN1CCOCC1)c1cc2nc(-c3ccccc3)cc(-c3ccccc3)n2n1 [Example 13, N-(3-Morpholinopropyl)-5,7-diphenylpyrazolo[1,5-a]pyrimidine-2-carboxamide] |
| 2.44 | 401 | CCN1CCC[C@H]1CNC(=O)c1cc2nc(-c3ccccc3)cc(-c3ccccc3)n2n1 [Example 14, (S)—N-((1-Ethylpyrrolidin-2-yl)methyl)-5,7-diphenylpyrazolo[1,5-a]pyrimidine-2-carboxamide] |
|  | 242 | COc1ccc(-c2cc(-c3ccccc3)nc3cc(C(=O)NCCCn4ccnc4)nn23)cc1 [Example 79, N-(3-(1H-imidazol-1-yl)propyl)-7-(4-methoxyphenyl)-5-phenylpyrazolo[1,5-a]pyrimidine-2-carboxamide] |
